Source: PubChem BioAssay (NCI)
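Values below derive from 48-hour exposures of cells grown in 96-well plates, with endpoints linearly interpolated between the two concentrations bracketing the appropriate inhibition level. TGI denotes the concentration required for complete inhibition of growth.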

What was measured:
Assay in all cases: NCI anticancer screen, dose series, 48 h
[1] = tested on: T-47D breast
[2] = tested on: SF-539 CNS
[3] = tested on: HS 578T breast
[4] = tested on: SNB-75 CNS
[5] = tested on: SR leukemia
[6] = tested on: SNB-19 CNS
[7] = tested on: NCI-H460 lung
[8] = tested on: K-562 leukemia
[9] = tested on: MDA-MB-231 breast
[10] = tested on: M14 melanoma
[11] = tested on: HT29 colon
[12] = tested on: CAKI-1 renal
[13] = tested on: ACHN renal
[14] = tested on: PC-3 prostate
[15] = tested on: MCF7 breast
[16] = tested on: LOX IMVI melanoma
[17] = tested on: SW-620 colon
[18] = tested on: SK-MEL-2 melanoma
[19] = tested on: UO-31 renal
[20] = tested on: OVCAR-4 ovarian
[21] = tested on: MDA-N
[22] = tested on: OVCAR-8 ovarian
[23] = tested on: NCI-H226 lung
[24] = tested on: OVCAR-5 ovarian
[25] = tested on: SK-MEL-28 melanoma
[26] = tested on: RPMI-8226 leukemia
[27] = tested on: SK-OV-3 ovarian
[28] = tested on: HOP-62 NSCLC
[29] = tested on: COLO 205 colon
[30] = tested on: KM12 colon
[31] = tested on: UACC-257 melanoma
[32] = tested on: NCI-H522 lung
[33] = tested on: EKVX NSCLC
[34] = tested on: OVCAR-3 ovarian
[35] = tested on: HCT-116 colon
[36] = tested on: A549 NSCLC
[37] = tested on: IGROV1 ovarian
[38] = tested on: SF-268 CNS
[39] = tested on: 786-0 renal
[40] = tested on: TK-10 renal
[41] = tested on: SK-MEL-5 melanoma
[42] = tested on: U251 CNS
[43] = tested on: HCT-15 colon
[44] = tested on: UACC-62 melanoma
[45] = tested on: BT-549 breast
[46] = tested on: SN12C renal
[47] = tested on: DU-145 prostate
[48] = tested on: HL-60(TB) leukemia
[49] = tested on: CCRF-CEM leukemia
[50] = tested on: NCI-H23 lung
[51] = tested on: SF-295 CNS
[52] = tested on: A498 renal
[53] = tested on: MDA-MB-435
[54] = tested on: NCI/ADR-RES ovarian
[55] = tested on: MOLT-4 leukemia
[56] = tested on: MALME-3M melanoma
[57] = tested on: HCC-2998 colon
[58] = tested on: HOP-92 NSCLC

c1ccc(NNC2=NCCN2)cc1 was tested. Which TGI [1] did it give?
Its TGI is over 100 µM.

What about the TGI [2] of the same molecule?
Its TGI is over 100 µM.

And the TGI [3]?
Its TGI is over 100 µM.

What about the TGI [4] of the same molecule?
Its TGI is over 100 µM.

What about the TGI [5] of the same molecule?
Its TGI is over 100 µM.

What about the TGI [6] of the same molecule?
The TGI was over 100 µM.

What about the TGI [7] of the same molecule?
The TGI was over 100 µM.

What about the TGI [8] of the same molecule?
Its TGI is over 100 µM.

What about the TGI [9] of the same molecule?
Its TGI is over 100 µM.

What about the TGI [10] of the same molecule?
Its TGI is over 100 µM.

And the TGI [11]?
Its TGI is over 100 µM.

What about the TGI [12] of the same molecule?
Its TGI is over 100 µM.

And the TGI [13]?
The TGI was over 100 µM.

And the TGI [14]?
The TGI was over 100 µM.

What about the TGI [15] of the same molecule?
The TGI was over 100 µM.

What about the TGI [16] of the same molecule?
Its TGI is over 100 µM.

And the TGI [17]?
The TGI was over 100 µM.

And the TGI [18]?
Its TGI is over 100 µM.

What about the TGI [19] of the same molecule?
Its TGI is over 100 µM.

What about the TGI [20] of the same molecule?
Its TGI is over 100 µM.

And the TGI [21]?
Its TGI is over 100 µM.

What about the TGI [22] of the same molecule?
Its TGI is over 100 µM.

And the TGI [23]?
Its TGI is over 100 µM.

What about the TGI [24] of the same molecule?
The TGI was over 100 µM.

And the TGI [25]?
Its TGI is over 100 µM.

What about the TGI [26] of the same molecule?
Its TGI is over 100 µM.

What about the TGI [27] of the same molecule?
The TGI was over 100 µM.

And the TGI [28]?
Its TGI is over 100 µM.

And the TGI [29]?
Its TGI is over 100 µM.

What about the TGI [30] of the same molecule?
The TGI was over 100 µM.

And the TGI [31]?
Its TGI is over 100 µM.

And the TGI [32]?
Its TGI is over 100 µM.

What about the TGI [33] of the same molecule?
Its TGI is over 100 µM.

And the TGI [34]?
The TGI was over 100 µM.

What about the TGI [35] of the same molecule?
Its TGI is over 100 µM.

What about the TGI [36] of the same molecule?
The TGI was over 100 µM.

What about the TGI [37] of the same molecule?
The TGI was over 100 µM.

What about the TGI [38] of the same molecule?
Its TGI is over 100 µM.

And the TGI [39]?
Its TGI is over 100 µM.

And the TGI [40]?
Its TGI is over 100 µM.

What about the TGI [41] of the same molecule?
The TGI was over 100 µM.

And the TGI [42]?
Its TGI is over 100 µM.

And the TGI [43]?
Its TGI is over 100 µM.

What about the TGI [44] of the same molecule?
Its TGI is over 100 µM.

What about the TGI [45] of the same molecule?
Its TGI is over 100 µM.

What about the TGI [46] of the same molecule?
Its TGI is over 100 µM.

What about the TGI [47] of the same molecule?
Its TGI is over 100 µM.

What about the TGI [48] of the same molecule?
The TGI was over 100 µM.

What about the TGI [49] of the same molecule?
The TGI was over 100 µM.

What about the TGI [50] of the same molecule?
The TGI was over 100 µM.

And the TGI [51]?
Its TGI is over 100 µM.

What about the TGI [52] of the same molecule?
The TGI was over 100 µM.

What about the TGI [53] of the same molecule?
Its TGI is over 100 µM.

What about the TGI [54] of the same molecule?
The TGI was over 100 µM.

What about the TGI [55] of the same molecule?
The TGI was over 100 µM.

With Cc1cc(-n2c(/C=C/c3ccc(Cl)cc3)nc3cc(Cl)ccc3c2=O)on1 as the molecule, how does the TGI [1] read?
Its TGI is over 50 µM.

And the TGI [2]?
Its TGI is over 50 µM.

And the TGI [3]?
The TGI was 31.4 µM.

And the TGI [6]?
The TGI was 26.6 µM.

What about the TGI [56] of the same molecule?
Its TGI is over 50 µM.

And the TGI [7]?
The TGI was 22 µM.

And the TGI [8]?
Its TGI is over 50 µM.

What about the TGI [9] of the same molecule?
Its TGI is 42.4 µM.

What about the TGI [10] of the same molecule?
The TGI was 32.9 µM.

What about the TGI [11] of the same molecule?
The TGI was over 50 µM.

And the TGI [12]?
Its TGI is over 50 µM.

What about the TGI [13] of the same molecule?
Its TGI is 24.1 µM.

What about the TGI [14] of the same molecule?
Its TGI is over 50 µM.

What about the TGI [15] of the same molecule?
The TGI was over 50 µM.

What about the TGI [16] of the same molecule?
Its TGI is over 50 µM.

And the TGI [17]?
Its TGI is over 50 µM.

What about the TGI [19] of the same molecule?
Its TGI is 19.7 µM.

What about the TGI [20] of the same molecule?
The TGI was 4.05 µM.

And the TGI [21]?
Its TGI is over 50 µM.

And the TGI [22]?
The TGI was 47.7 µM.

And the TGI [23]?
Its TGI is 33.2 µM.

And the TGI [24]?
Its TGI is over 50 µM.

And the TGI [25]?
The TGI was over 50 µM.

And the TGI [27]?
The TGI was 42.3 µM.

And the TGI [28]?
Its TGI is 18.3 µM.

And the TGI [29]?
Its TGI is over 50 µM.

What about the TGI [30] of the same molecule?
Its TGI is over 50 µM.

What about the TGI [31] of the same molecule?
The TGI was over 50 µM.

And the TGI [32]?
The TGI was over 50 µM.

And the TGI [33]?
Its TGI is over 50 µM.

What about the TGI [34] of the same molecule?
The TGI was 30.9 µM.

What about the TGI [35] of the same molecule?
Its TGI is 29.6 µM.

What about the TGI [36] of the same molecule?
Its TGI is over 50 µM.

What about the TGI [37] of the same molecule?
Its TGI is over 50 µM.

And the TGI [38]?
Its TGI is over 50 µM.

And the TGI [39]?
The TGI was 5.19 µM.

What about the TGI [40] of the same molecule?
The TGI was over 50 µM.

What about the TGI [41] of the same molecule?
The TGI was over 50 µM.

What about the TGI [42] of the same molecule?
Its TGI is 16.4 µM.

What about the TGI [43] of the same molecule?
The TGI was over 50 µM.

And the TGI [44]?
The TGI was over 50 µM.

And the TGI [45]?
The TGI was over 50 µM.

What about the TGI [57] of the same molecule?
The TGI was over 50 µM.

And the TGI [46]?
The TGI was over 50 µM.

What about the TGI [47] of the same molecule?
The TGI was over 50 µM.

And the TGI [48]?
Its TGI is over 50 µM.

What about the TGI [49] of the same molecule?
Its TGI is over 50 µM.

And the TGI [50]?
The TGI was over 50 µM.

What about the TGI [51] of the same molecule?
Its TGI is over 50 µM.

And the TGI [52]?
The TGI was 11.5 µM.

And the TGI [53]?
The TGI was over 50 µM.

What about the TGI [54] of the same molecule?
Its TGI is 39 µM.

And the TGI [58]?
Its TGI is over 50 µM.

What about the TGI [55] of the same molecule?
The TGI was over 50 µM.
